In ChEMBL document CHEMBL1126133, “2-Nitroimidazole dual-function bioreductive drugs: studies on the effects of regioisomerism and side-chain structural modifications on differential cytotoxicity and radiosensitization by aziridinyl and oxiranyl derivatives” (1992):

Key:
[1] = Concentration required to kill 50% of V79-379A cells under N2 (in vitro); format: functional, Cricetulus griseus
[2] = Concentration required to kill 50% of aerobic V79-379A cells (in vitro); format: functional, Cricetulus griseus
[3] = Ratio of concentration required to kill 50% aerobic V79-379A cells C50(air) to that of concentration required to kill 50% of cells under N2 C50(N2) was determined; format: functional
[4] = Radiosensitization of hypoxic V79-379A cells was determined in vitro; expressed as concentration required to give enhancement ratio of 1.6

Row | SMILES | C50 [1] | C50 [2] | Ratio [3] | C1.6 [4]
1 | O=[N+]([O-])c1nccn1CCC1CO1 (stereo not given) | 0.25 mM | 0.5 mM | 2 | 
2 | CC(C)(C(O)Cn1ccnc1[N+](=O)[O-])N1CC1 (stereo not given) | 0.008 mM | 0.1 mM | 12.5 | 0.07 mM
3 | O=[N+]([O-])c1nccn1[C@H]1CCC[C@@H](N2CC2)[C@@H]1O | 0.35 mM | 0.35 mM | 1 | 0.45 mM
4 | CC(O)(CN1CC1)Cn1ccnc1[N+](=O)[O-] (stereo not given) | 0.02 mM | 0.55 mM | 27.5 | 
5 | C[C@@H]([C@H](O)Cn1ccnc1[N+](=O)[O-])N1CC1 | 0.01 mM | 0.2 mM | 20 | 0.12 mM
6 | CC1CN1CC(O)Cn1ccnc1[N+](=O)[O-] (stereo not given) | 0.065 mM | 0.79 mM | 12.2 | 0.08 mM
7 | O=[N+]([O-])c1nccn1[C@@H]1CCC[C@@H]2O[C@@H]21 | 0.18 mM | 0.28 mM | 1.5 | 
8 | CC1(Cn2ccnc2[N+](=O)[O-])CO1 (stereo not given) | 0.2 mM | 0.2 mM | 1 | 
9 | O=[N+]([O-])c1nccn1CCCCC1CO1 (stereo not given) | 0.7 mM | 1.2 mM | 1.7 | 
10 | O=[N+]([O-])c1nccn1CC(O)CCC1CO1 (stereo not given) | 0.4 mM | 0.6 mM | 1.5 | 0.4 mM
11 | CC1OC1Cn1ccnc1[N+](=O)[O-] (stereo not given) | 3.3 mM | 10 mM | 3 | 
12 | O=[N+]([O-])c1nccn1CC(O)C1CO1 (stereo not given) | 0.36 mM | 1.2 mM | 3.3 | 0.2 mM
13 | O=[N+]([O-])c1nccn1CC(O)CN1CC1 (stereo not given) | 0.015 mM | 0.3 mM | 20 | 0.1 mM
14 | O=[N+]([O-])c1ncc[nH]1 [AZOMYCIN] | 0.27 mM | 0.55 mM | 2 | 0.25 mM
